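Following 48 hours of exposure in 96-well plates, responses at five concentrations were used to interpolate endpoints linearly. The concentration for 50% growth inhibition is given as GI50. TGI: concentration producing complete growth inhibition.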
How the values were obtained:
Assay in all cases: growth of human tumour cells (NCI), 48 h
A549 NSCLC = system: A549 NSCLC
HT29 colon = system: HT29 colon
KM12 colon = system: KM12 colon
M14 melanoma = system: M14 melanoma
NCI-H226 lung = system: NCI-H226 lung
NCI-H23 lung = system: NCI-H23 lung
NCI-H460 lung = system: NCI-H460 lung
OVCAR-8 ovarian = system: OVCAR-8 ovarian
SNB-75 CNS = system: SNB-75 CNS
IGROV1 ovarian = system: IGROV1 ovarian

SMILES	TGI (A549 NSCLC)	TGI (HT29 colon)	TGI (KM12 colon)	TGI (M14 melanoma)	TGI (NCI-H226 lung) [µM]	TGI (NCI-H23 lung)	TGI (NCI-H460 lung)	TGI (OVCAR-8 ovarian)	TGI (SNB-75 CNS)	TGI (IGROV1 ovarian)	GI50 (OVCAR-8 ovarian)	GI50 (SNB-75 CNS)	GI50 (A549 NSCLC)	GI50 (HT29 colon)	GI50 (IGROV1 ovarian)	GI50 (KM12 colon)	GI50 (M14 melanoma)	GI50 (NCI-H226 lung) [µM]	GI50 (NCI-H23 lung)	GI50 (NCI-H460 lung)
N#Cc1c(Cl)c2cc([N+](=O)[O-])ccc2n2c1nc1ccccc12	> 100 µM	18.4 µM	42.8 µM	4.41 µM	34.3	35.8 µM	38.5 µM	10.6 µM	24.6 µM	–	–	–	–	–	–	–	–	–	–	–
C=C(C)C(=O)OC1CCC2(C)C(CCC3C2CCC2(C)C(c4ccc(=O)oc4)CC4OC432)C1 (stereo not drawn)	25.4 µM	52 µM	24.3 µM	–	48.1	19.3 µM	7.99 µM	24 µM	36.6 µM	20.5 µM	–	–	–	–	–	–	–	–	–	–
COc1cc(/C=C2\CCCC3=C2NC(C)=NC3c2cc(OC)c(OC)c(OC)c2)cc(OC)c1OC (stereo not drawn)	–	–	–	–	–	–	–	> 100 µM	> 100 µM	–	0.372 µM	> 100 µM	–	–	–	–	–	–	–	–
O=S1(=O)N(CCNc2nccc(-c3c(-c4cccc(O)c4)nc4sccn34)n2)CCN1Cc1ccccc1	> 50 µM	36.4 µM	15.3 µM	27.7 µM	20.8	27.7 µM	17.1 µM	> 50 µM	> 50 µM	43.6 µM	4.88 µM	9.38 µM	12.5 µM	2.57 µM	6.65 µM	5.44 µM	0.461 µM	7.45	7.19 µM	3.45 µM
Cc1nc2ccccc2n1C(=O)c1c(F)c(F)c(F)c(F)c1F	> 100 µM	27.5 µM	14.7 µM	25.9 µM	65.5	56.2 µM	52 µM	40.6 µM	90.1 µM	44.8 µM	–	–	–	–	–	–	–	–	–	–
Cc1cc(O)c(C(C)(C)C)cc1Sc1cc(C(C)(C)C)c(O)cc1C	10.3 µM	4.47 µM	5.01 µM	–	–	11.8 µM	7.33 µM	15.4 µM	14.5 µM	12.5 µM	3.82 µM	2.99 µM	3.1 µM	2.34 µM	2.98 µM	2.24 µM	–	–	3.49 µM	2.89 µM
Clc1ccccc1/C=C/c1cscn1	–	> 100 µM	> 100 µM	> 100 µM	–	> 100 µM	> 100 µM	–	> 100 µM	–	–	–	–	–	–	–	–	–	–	–
C=CC1(C)CCC2=C(CCC3C(C)(C(=O)OC)CCCC23C)C1=O (stereo not drawn)	–	31.2 µM	31.5 µM	38.7 µM	40.2	54.5 µM	36.5 µM	> 100 µM	–	37.1 µM	–	–	–	–	–	–	–	–	–	–
O=C(N/N=C\c1cccc(O)c1)c1ccncc1	> 100 µM	> 100 µM	> 100 µM	> 100 µM	–	> 100 µM	> 100 µM	> 100 µM	> 100 µM	> 100 µM	–	–	–	–	–	–	–	–	–	–
CCOC(=O)C(O)(NC(=O)c1ccc(F)cc1)C(F)(F)F (stereo not drawn)	> 100 µM	> 100 µM	> 100 µM	> 100 µM	> 100	> 100 µM	–	> 100 µM	> 100 µM	> 100 µM	–	–	–	–	–	–	–	–	–	–
O=C1NN(C2=NNC3(C(=O)N2)c2ccccc2-c2ccccc23)C(c2ccccc2)=N/C1=C/c1ccc(O)cc1	> 150 µg/mL	> 150 µg/mL	57.6 µg/mL	> 150 µg/mL	–	> 150 µg/mL	> 150 µg/mL	> 150 µg/mL	> 150 µg/mL	15 µg/mL	65.9 µg/mL	57.4 µg/mL	74.7 µg/mL	> 150 µg/mL	15 µg/mL	28.6 µg/mL	57.6 µg/mL	–	61.5 µg/mL	57.6 µg/mL
